Test results from patent US20150113683A1, “METHODS FOR PLANT TRANSFORMATION USING SPECTINOMYCIN SELECTION” (Monsanto Technology LLC, priority 2007, published 2015).
Values joined by “and” are separate entries in the source; they are usually repeats but may differ in a detail not shown here. Identical values can stand only once.

Legend:
dry soybean explants [1] = test: Dry soybean embryos, spectinomycin, liquid culture medium: TF with hydration conditions and liquid overlay timing; type: cell-based; settings: spectinomycin 150 ppm
Excerpt: In these studies, explants were initially hydrated and eventually regenerated on WPM solid media with liquid overlay or WPM liquid medium as above. […] In liquid overlay treatment both solid and liquid culture media were used; liquid medium was dispensed over the top of explants as they were lying on solid medium at a specified time during tissue culture as identified in the Table 30. This was done as a type of media refreshment and avoids the need for transferring explants from old media to new media. In the control treatments, explants were surface plated on a solid WPM medium (Table 2).

dry soybean explants [2] = test: Transformation frequency of dry soybean explants using glyphosate or spectinomycin as selective agent; type: cell-based; settings: for % TF: dry soybean explants
soybean explants [3] = test: Transformation frequency using spectinomycin selection at different levels; type: cell-based, soybean (Glycine max)
soybean explants [4] = test: Explants on different levels of spectinomycin: GUS-expressing buds and shoots; type: cell-based, soybean (Glycine max); settings: for % explants with GUS+ shoots/buds / # Explants with GUS+ shoots/buds: 2 mg/L TDZ in co-culture; for # Explants with GUS+ shoots/buds: 25 explants assayed
[5] = tested on: 3 months stored dry soybean explants; test: Stored dry soybean explants, spectinomycin, pre-culture: TF; type: cell-based; settings: pMON107379
Excerpt: TDZ and lipoic acid were both added to the inoculum and to the co-culture media (INO). The construct, pMON107379, was a conventional 2T vector comprising oriRi and aadA gene, and co-culture was done for 5 days.

[6] = tested on: dry excised soybean explants; test: Dry soybean embryos, spectinomycin, whole regenerated explant with pre-culturing step: TF and event quality; type: cell-based; settings: for % quality events: 1-2 copies of GUS and aadA by Invader assay; for # Events produced / TF % / qTF %: spectinomycin 150 ppm; for Estimated mTF %: marker-free TF, events without the marker gene
[7] = Total over all Spec levels of the experiment (1102: 25-250 mg/L; 1119: 50-250 mg/L)
[8] = first study, spectinomycin selection 25-250 mg/L

CN[C@@H]1[C@H](O)[C@H](NC)[C@H]2O[C@@]3(O)C(=O)C[C@@H](C)O[C@H]3O[C@@H]2[C@H]1O [Spectinomycin, spectinomycin]
TF % (mean of 3 repeats) (dry soybean explants [1]; Treatment 1-Control, hydration medium INO, incubation with Agrobacteria 0 minutes, surface plated on solid WPM): 3.10% | TF % (mean of 3 repeats) (dry soybean explants [1]; Treatment 2, hydration medium BGM w/o cefotaxime, incubation with Agrobacteria 0 minutes): 14.67% | TF % (mean of repeats) (dry soybean explants [1]; Treatment 2, no liquid overlay, Oasis Wedge transfer for regeneration): 14.67% | TF % (mean of 3 repeats) (dry soybean explants [1]; Treatment 3, hydration medium BGM w/o cefotaxime, incubation with Agrobacteria 15 minutes): 15.45% | TF % (mean of repeats) (dry soybean explants [1]; Treatment 3, liquid overlay 3 weeks post inoculation, 5 mLs on solid WPM, Oasis Wedge transfer): 15.45% | TF % (mean of 3 repeats) (dry soybean explants [1]; Treatment 4, hydration medium BGM w/o cefotaxime, incubation with Agrobacteria 30 minutes): 18.50% | TF % (mean of repeats) (dry soybean explants [1]; Treatment 4, liquid overlay 3 weeks post inoculation, 10 mLs on solid WPM, Oasis Wedge transfer): 18.50% | TF % (mean of 3 repeats) (dry soybean explants [1]; Treatment 5, hydration medium INO, incubation with Agrobacteria 0 minutes): 13.98% | TF % (mean of repeats) (dry soybean explants [1]; Treatment 5, liquid overlay 4 weeks post inoculation, 5 mLs on solid WPM, Oasis Wedge transfer): 13.98% | TF % (mean of 3 repeats) (dry soybean explants [1]; Treatment 6, hydration medium INO, incubation with Agrobacteria 15 minutes): 9.64% | TF % (mean of repeats) (dry soybean explants [1]; Treatment 6, liquid overlay 4 weeks post inoculation, 10 mLs on solid WPM, Oasis Wedge transfer): 9.64% | TF % (mean of 3 repeats) (dry soybean explants [1]; Treatment 7, hydration medium INO, incubation with Agrobacteria 30 minutes): 13.79% | TF % (mean of repeats) (dry soybean explants [1]; Treatment Control-1, liquid overlay NA, overlay volume None, no Oasis Wedge transfer): 8.00% | transformation frequencies (dry soybean explants [2]; 150 ppm spectinomycin, dry excised soybean embryos, 1 hr hydration in INO, 4 days co-culture, two different studies): 25.05% and 19.27% | % TF (dry soybean explants [2]; Spectinomycin 25 ppm in regeneration medium): 4.66% | % TF (dry soybean explants [2]; Spectinomycin 50 ppm in regeneration medium): 4.24% | % TF (dry soybean explants [2]; Spectinomycin 100 ppm in regeneration medium): 6.34% | % TF (dry soybean explants [2]; Spectinomycin 200 ppm in regeneration medium): 5.99% | % TF (transformation frequency) (soybean explants [3]; Spec level 25 mg/L): 19% | Plants tested for transformation, Total (soybean explants [3]; Spec level 25 mg/L): 19 | Shoots harvested, % SF (shoot frequency) (soybean explants [3]; Spec level 25 mg/L): 46% | Shoots harvested, Total (soybean explants [3]; Spec level 25 mg/L): 46 | % TF (transformation frequency) (soybean explants [3]; Spec level 50 mg/L): 14.7% and 22.2% | Plants tested for transformation, Total (soybean explants [3]; Spec level 50 mg/L): 88 and 48 | Shoots harvested, % SF (shoot frequency) (soybean explants [3]; Spec level 50 mg/L): 24.8% and 46.8% | Shoots harvested, Total (soybean explants [3]; Spec level 50 mg/L): 149 and 101 | % TF (transformation frequency) (soybean explants [3]; Spec level 100 mg/L): 15.7% and 12.6% | Shoots harvested, % SF (shoot frequency) (soybean explants [3]; Spec level 100 mg/L): 20.5% and 20.6% | % TF (transformation frequency) (soybean explants [3]; Spec level 150 mg/L): 26.1% and 18.3% | Shoots harvested, % SF (shoot frequency) (soybean explants [3]; Spec level 150 mg/L): 35.1% and 20.8% | % TF (transformation frequency) (soybean explants [3]; Spec level 200 mg/L): 14.4% and 12.5% | Shoots harvested, % SF (shoot frequency) (soybean explants [3]; Spec level 200 mg/L): 28.2% and 15.2% | Shoots harvested, Total (soybean explants [3]; Spec level 200 mg/L): 53 and 91 | % TF (transformation frequency) (soybean explants [3]; Spec level 250 mg/L): 19.5% and 16.3% | Shoots harvested, % SF (shoot frequency) (soybean explants [3]; Spec level 250 mg/L): 27.5% and 18.0% | Shoots harvested, Total (soybean explants [3]; Spec level 250 mg/L): 55 and 108 | % TF (transformation frequency) (soybean explants [3]; [7]): 18.6% and 15.5% | Shoots harvested, % SF (shoot frequency) (soybean explants [3]; [7]): 33.3% and 19.9% | Shoots harvested, Total (soybean explants [3]; [7]): 330 and 596 | average transformation frequency (soybean explants [3]; [8]): 18.6% | transformation frequency, range (soybean explants [3]; [8]): 12.6-26.1% | plants later shown to be transformed (soybean explants [3]; of the first 32 plants tested to confirm transformation, one escape): 31 | % explants with GUS+ shoots/buds (soybean explants [4]; spectinomycin level 25 (mg/L)): 52% | # Explants with GUS+ shoots/buds (soybean explants [4]; spectinomycin level 25 (mg/L)): 13 | % explants with GUS+ shoots/buds (soybean explants [4]; spectinomycin level 50): 72% | # Explants with GUS+ shoots/buds (soybean explants [4]; spectinomycin level 50): 18 | % explants with GUS+ shoots/buds (soybean explants [4]; spectinomycin level 100): 76% | # Explants with GUS+ shoots/buds (soybean explants [4]; spectinomycin level 100): 19 | % explants with GUS+ shoots/buds (soybean explants [4]; spectinomycin level 150): 72% | # Explants with GUS+ shoots/buds (soybean explants [4]; spectinomycin level 150): 18 | % explants with GUS+ shoots/buds (soybean explants [4]; spectinomycin level 200): 80% | # Explants with GUS+ shoots/buds (soybean explants [4]; spectinomycin level 200): 20 | % explants with GUS+ shoots/buds (soybean explants [4]; spectinomycin level 250): 80% | # Explants with GUS+ shoots/buds (soybean explants [4]; spectinomycin level 250): 20 | explants that developed GUS-positive buds and shoots (soybean explants [4]; within two weeks on selective medium, about 22 DAI, TDZ-treated explants): Up to 80% | R0 plants ([5]; Fresh Dry Explants, no pre-culture step, 375 explants): 24 | TF ([5]; Fresh Dry Explants, no pre-culture step): 6.40% | R0 plants ([5]; Fresh Dry Explants, pre-culture step 5 days 23° C. dark in BGM, 1008 explants): 112 | TF ([5]; Fresh Dry Explants, pre-culture step 5 days 23° C. dark in BGM): 11.11% | R0 plants ([5]; Stored Dry Explants (3 months), no pre-culture step, 678 explants): 71 | TF ([5]; Stored Dry Explants (3 months), no pre-culture step): 10.47% | R0 plants ([5]; Stored Dry Explants (3 months), pre-culture step 5 days 23° C. dark in BGM, 901 explants): 129 | TF ([5]; Stored Dry Explants (3 months), pre-culture step 5 days 23° C. dark in BGM): 14.32% | R0 plants ([5]; Wet Excised explants, no pre-culture step, 263 explants): 75 | TF ([5]; Wet Excised explants, no pre-culture step): 28.52% | % quality events ([6]; Dry Excised - 2T/OriRi, 14 events assayed): 28.6% | # Events produced ([6]; Dry Excised - 2T/OriRi, 161 explants): 15 | Estimated mTF % ([6]; Dry Excised - 2T/OriRi): 0.45% | TF % ([6]; Dry Excised - 2T/OriRi): 9.32 +/− 7.38% | qTF % ([6]; Dry Excised - 2T/OriRi): 2.5% | % quality events ([6]; Dry Excised - 2T/OriV, 32 events assayed): 21.9% | # Events produced ([6]; Dry Excised - 2T/OriV, 260 explants): 34 | Estimated mTF % ([6]; Dry Excised - 2T/OriV): 0.62% | TF % ([6]; Dry Excised - 2T/OriV): 13.1 +/− 0.17% | qTF % ([6]; Dry Excised - 2T/OriV): 2.7 +/− 0.23% | % quality events ([6]; Pre-cultured Dry - 2T/OriRi, 64 events assayed): 20.3% | # Events produced ([6]; Pre-cultured Dry - 2T/OriRi, 336 explants, pre-culture 5 days 23° C. dark in BGM): 66 | Estimated mTF % ([6]; Pre-cultured Dry - 2T/OriRi): 0.7% | TF % ([6]; Pre-cultured Dry - 2T/OriRi, pre-culture 5 days 23° C. dark in BGM): 19.64 +/− 1.97% | qTF % ([6]; Pre-cultured Dry - 2T/OriRi): 3.9 +/− 1.22% | % quality events ([6]; Pre-cultured Dry - 2T/OriV, 311 events assayed): 24.4% | # Events produced ([6]; Pre-cultured Dry - 2T/OriV, 1641 explants, pre-culture 5 days 23° C. dark in BGM): 319 | Estimated mTF % ([6]; Pre-cultured Dry - 2T/OriV): 1.1% | TF % ([6]; Pre-cultured Dry - 2T/OriV, pre-culture 5 days 23° C. dark in BGM): 19.4 +/− 5.42% | qTF % ([6]; Pre-cultured Dry - 2T/OriV): 4.6 +/− 1.35%
